Measured values as given in patent publication US20150297761A1, “PEPTIDIC STRUCTURES INCORPORATING AN AMINO ACID METAL COMPLEX AND APPLICATIONS IN MAGNETIC RESONANCE IMAGING” (THE GENERAL HOSPITAL CORPORATION, priority 2012, published 2015).
Values belong to the compound of their own block, whether it stands above or below them.

Experiments:
[1] = Ligand challenge, equilibrium constant Kcomp of [Gd(DTPA)(H2O)]2− vs. L; assay type: physicochemical; settings: calculated from literature thermodynamic data
Procedure: As a means of assessing thermodynamic stability relative to other Gd(III)-complexes, [Gd(CyPic3A)(H2O)2]^− was challenged with DTPA in pH 7.4 25 mM Tris buffer. […] From this information it was possible to deduce equilibrium constants (Kcomp) for the competition reaction described in Equation 5,^31 where L=DTPA and L′=challenging chelator.
Equilibration of each solution was monitored by LC-MS. Relative distributions of [Gd(CyPic3A)(H2O)2]^− and CyPic3A were determined by integrating the corresponding absorbance traces at 280 nm. […] Kcomp values determined between [Gd(DTPA)(H2O)]^2− and various ligands were determined from conditional formation constants (Kcond)^4 values taken from the literature.^6-16 Direct comparisons were only made between Kcond values determined under identical conditions.

[2] = Relaxivity of Gd(DOTAla) metallopeptides and reference agents (T1 inversion recovery, 37° C.); assay type: physicochemical; settings: for Relaxivity per Gd, 400 MHz: 400 MHz (9.4 T); for r1 [0.47 T], per molecule / r1 [1.4 T], per molecule: per molecule (in parentheses)
Procedure: Main numbers are given per Gd, numbers in parentheses are per molecule values. All numbers were determined at 37° C. using an inversion recovery sequence at concentrations ranging from 0.05 to 0.6 mM/Gd. Table 4 in Example 2 further expands the data of Table 1.
Per Gd relaxivities were determined by measuring T1 at 37° C. using 20, 60, 200, 400 and 500 MHz spectrometers. Relaxivities for MS-325 (with and without the presence of HSA) as a reference compound with a long τR and [Gd(HP-DO3A)(H2O)] as a reference for very short τR were also measured, and all the relaxivity data is tabulated in Table 4, together with results obtained from literature for the compounds with similar estimated τR. […] Additional rigidity through cyclization seems to provide only minor relaxivity increase for the dimeric and trimeric systems (Gd2C2 and Gd3C3).
(§1) Measurement of relaxivity. Longitudinal relaxation times T1, were measured on Bruker Minispecs mq20 (0.47 T) and mq60 (1.41 T), a Bruker Bioscan horizontal bore 4.7 T, 9.4 T and 11.7 T Varian NMR spectrometers. T1 was measured by using an inversion recovery method with 10 inversion time values ranging from 0.05×T1 to 5×T1. Relaxivity was calculated from a linear plot of 3 or 4 different concentrations (ranging from 0.01 to 0.5 mM, depending on amount of compound isolated) versus the corresponding inverse relaxation times. All samples were measured at 37° C. using either the internal temperature control of the instrument (0.47, 1.41, 9.4 and 11.7 T) or a warm air blower (4.7 T). MS-325/HSA was prepared in a 4.5% w/v solution of HSA (0.66 mM) in PBS. The MS-325 concentration (in presence of HSA) ranged from 0.05 to 0.15 mM.

[3] = Relaxivity before and after disulfide bond reduction with TCEP; assay type: physicochemical; settings: for relaxivity r1, cyclic versus linearized (reduced) multimer: 1.4 T; for relaxivity r1, cyclic versus linearized (reduced) multimer / Relaxivity per Gd, TCEP reduced / Relaxivity per Gd, cyclic: 37° C.; for Relaxivity per Gd, TCEP reduced: after TCEP reduction of the disulfide bond; for Relaxivity per Gd, cyclic: first value column, before reduction; for relaxivity after disulfide bond reduction: 20 eq. TCEP 30 minutes, T1 at 37° C., field not stated in the sentence (0.47 and 1.41 T examined)
Procedure: Investigation of the effect of tertiary structure on relaxivity, was done by examination of the effect of disulfide bond reduction on T1 at 0.47 and 1.41 T. T1 was measured for each sample at 37° C. and then the samples were incubated with 20 eq. TCEP for 30 minutes at room temperature to reduce the intramolecular disulfide bond and give the linear peptide. Subsequently, the T1 values were remeasured and concentrations re-determined in order to calculate relaxivities. […] Over all, reduction of the disulfide bond has only a slight effect on relaxivity (FIGS. 16-18 and Table 5).
Reduction of disulfide bond for relaxivity measurements. Complex solutions of purified, cyclic Gd complexes (concentrations of 0.1-0.025 mM, 110 μL) in HEPES buffer (50 mM, pH 7.4) were mixed with TCEP solution (20 mM in HEPES, 10 μL) and incubated room temperature. Reduction was checked by LCMS analysis and found to be complete after 30 minutes.
as §1

[4] = Relaxivity in the absence and presence of HSA (Example 3); assay type: physicochemical
Procedure: ^1H and ^13C NMR spectra were recorded on a Varian 500 NMR system equipped with a 5 mm broadband probe. Longitudinal relaxation times, T1, were measured by using the inversion recovery method on Bruker Minispecs. mq20 (20 MHz) and mq60 (60 MHz). Purification via HPLC of intermediates toward Fmoc-DOTAla was performed using method A: Injection of crude mixture onto preparative HPLC on a Rainin, Dynamax (column: 250 mm Kromasil C18) by using A: 0.1% TFA in water, B: 0.1% TFA in MeCN, flow-rate 15 mL/min, 1 over 23 minutes. HPLC purity analysis (both UV and MS detection) was carried out on an Agilent 1100 system (column: Phenomenex Luna, C18(2) 100/2 mm) with UV detection at 220, 254 and 280 nm by using a method B: A gradient of A(0.1% formic acid in water) to 95% B(0.1% formic acid in MeCN), flow-rate 0.8 mL/min, 1 over 15 minutes.

HSA = HSA (Homo sapiens, UniProt P02768); assay: HSA binding by ultrafiltration and ICP-MS (Example 3); assay type: in vitro ADME; settings: 0.1 mM compound, 4.5% (w/v) HSA, 37° C.
Procedure: In order to measure HSA binding of the complexes, a 0.1 mM solution (determined by ICP-MS) of the corresponding Gd complex in 4.5% w/v HSA was prepared and pipetted into a Ultrafree-MC Microcentrifuge Filter (NMWL 5,000 Da, PLCC, Millipore). The mixture is incubated at 37° C. for 10 minutes and subsequently centrifuged at 12,000 rpm for 15 minutes. Binding is determined by measurement of Gd content in the filtrate by ICP-MS.

[5] = Relaxivity of DOTAlaP derivatives (Example 6); assay type: physicochemical
Procedure: Relaxivity. Longitudinal relaxation times T1, were measured on Bruker Minispecs mq20 (20 MHz) and mq60 (60 MHz) using an inversion recovery method with 10 inversion time values ranging from 0.05×T1 to 5×Ti. Relaxivity was calculated from a linear plot of 3 different concentrations ranging from 0.25 to 1.0 mM versus the corresponding inverse relaxation times. The temperature was adjusted to 37° C.

[6] = 17O NMR of Gd complexes for determination of τM (Example 6); assay type: physicochemical; settings: pH 7.4, 10 mM PBS; for ^310 TM (ns) / ^310kex × 10^6 (s^−1): 310 K
Procedure: ^17O NMR of Gd complexes for Determination of TM. ^17O NMR measurements of solutions were performed at 11.7 T on 350 μL samples contained in 5 mm standard NMR tubes on a Varian spectrometer. Temperature was regulated by air flow controlled by a Varian VT unit. ^17O transverse relaxation times of a >4 mM solution of Gd(3) and Gd(5a) (pH 7.4, 10 mM PBS buffer) were measured using a CPMG sequence. The concentration of the sample was determined by ICP-MS. Reduced relaxation rates, 1/T2r were calculated from the difference of 1/T2 between the sample and the water blank, and then divided by the mole fraction of coordinated water. The temperature dependence of 1/T2r was fit to a 4-parameter model as previously described. The Gd—O hyperfine-coupling constant, A/h, was assumed to be 3.8×10^6 rad/s, the Gd—O distance was assumed to be 3.1 Å.

Sequence of HSA (P02768 25-609): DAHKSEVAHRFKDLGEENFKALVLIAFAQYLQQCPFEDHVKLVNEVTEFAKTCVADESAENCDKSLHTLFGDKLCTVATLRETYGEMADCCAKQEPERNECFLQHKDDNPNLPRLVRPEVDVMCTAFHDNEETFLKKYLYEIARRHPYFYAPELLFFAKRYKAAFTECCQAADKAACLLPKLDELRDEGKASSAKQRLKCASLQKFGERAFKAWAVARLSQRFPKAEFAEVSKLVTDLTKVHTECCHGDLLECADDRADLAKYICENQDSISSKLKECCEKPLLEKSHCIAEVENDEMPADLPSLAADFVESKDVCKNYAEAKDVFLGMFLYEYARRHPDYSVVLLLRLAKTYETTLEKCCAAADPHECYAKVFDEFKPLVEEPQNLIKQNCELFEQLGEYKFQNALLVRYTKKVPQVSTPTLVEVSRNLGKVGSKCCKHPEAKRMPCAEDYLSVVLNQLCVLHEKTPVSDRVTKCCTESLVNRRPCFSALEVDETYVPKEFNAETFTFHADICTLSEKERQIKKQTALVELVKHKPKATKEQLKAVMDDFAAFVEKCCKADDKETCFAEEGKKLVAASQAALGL

Compound: O=C(O)CN1CCN(CC(=O)O)Cc2cccc(n2)CN(CC(=O)O)CC1 [PCTA]
Kcomp [Gd(DTPA)(H2O)]^2- vs. L pH 4 [1]: 0.064^10
Kcomp, [Gd(DTPA)(H2O)]^2- vs. L pH 7.4 [1]: 0.019^10

Relaxivity per Gd, 20 MHz [2]: 11.4 mM⁻¹ s⁻¹
Relaxivity per Gd, 60 MHz [2]: 10.6 mM⁻¹ s⁻¹
Relaxivity per Gd, 200 MHz [2]: 7.5 mM⁻¹ s⁻¹
Relaxivity per Gd, 400 MHz [2]: 5.7 mM⁻¹ s⁻¹
Relaxivity per Gd, 500 MHz [2]: 4.5 mM⁻¹ s⁻¹
r1 [0.47 T], per Gd [2]: 13.1 mM⁻¹ s⁻¹
r1 [1.4 T], per Gd [2]: 12.2 mM⁻¹ s⁻¹
r1 [0.47 T], per molecule [2]: 26.2 mM⁻¹ s⁻¹
r1 [1.4 T], per molecule [2]: 24.4 mM⁻¹ s⁻¹
relaxivity r1, cyclic versus linearized (reduced) multimer [3]: 10.5 mM⁻¹ s⁻¹
Relaxivity per Gd, TCEP reduced [3]: 9 mM⁻¹ s⁻¹
Relaxivity per Gd, cyclic [3]: 10.5 mM⁻¹ s⁻¹
Compound: H2N—C(S^cycl)PG-DOTAla(Gd)-G-DOTAla(Gd)-GC(S^cycl)CON H2 [Gd2C2]

relaxivity r1, cyclic versus linearized (reduced) multimer [3]: 9 mM⁻¹ s⁻¹
relaxivity after disulfide bond reduction [3]: 9 mM⁻¹ s⁻¹
Compound: H2N—C(SH)PG-DOTAla(Gd)-G-DOTAla(Gd)-GC(SH)CONH2 [Gd2C2-red]

Relaxivity per Gd, 20 MHz [2]: 12.7 mM⁻¹ s⁻¹
Relaxivity per Gd, 60 MHz [2]: 12.3 mM⁻¹ s⁻¹
Relaxivity per Gd, 200 MHz [2]: 9.2 mM⁻¹ s⁻¹
Relaxivity per Gd, 400 MHz [2]: 6.6 mM⁻¹ s⁻¹
Relaxivity per Gd, 500 MHz [2]: 5.5 mM⁻¹ s⁻¹
r1 [0.47 T], per Gd [2]: 13.38 mM⁻¹ s⁻¹
r1 [1.4 T], per Gd [2]: 12.86 mM⁻¹ s⁻¹
r1 [0.47 T], per molecule [2]: 40.14 mM⁻¹ s⁻¹
r1 [1.4 T], per molecule [2]: 38.58 mM⁻¹ s⁻¹
Relaxivity per Gd, TCEP reduced [3]: 11.5 mM⁻¹ s⁻¹
Relaxivity per Gd, cyclic [3]: 12.3 mM⁻¹ s⁻¹
Compound: H2N—C(S^cycl)PG-DOTAla(Gd)-G-DOTAla(Gd)-G-DOTAla(Gd)-GC(S^cycl)CONH2 [Gd3C3]

Relaxivity per Gd, 20 MHz [2]: 8.3 mM⁻¹ s⁻¹
Relaxivity per Gd, 60 MHz [2]: 7.1 mM⁻¹ s⁻¹
Relaxivity per Gd, 200 MHz [2]: 7.3 mM⁻¹ s⁻¹
Relaxivity per Gd, 400 MHz [2]: 5.1 mM⁻¹ s⁻¹
Relaxivity per Gd, 500 MHz [2]: 4.5 mM⁻¹ s⁻¹
r1 [0.47 T], per Gd [2]: 8.3 mM⁻¹ s⁻¹
r1 [1.4 T], per Gd [2]: 6.7 mM⁻¹ s⁻¹
Relaxivity per Gd, TCEP reduced [3]: 6.4 mM⁻¹ s⁻¹
Relaxivity per Gd, cyclic [3]: 7.1 mM⁻¹ s⁻¹
Compound: H2N—C(S^cycl)PG-DOTAla(Gd)-GC(S^cycl)CONH2 [GdC1]

r1 (20 MHz), absence of HSA ([4]; 20 MHz, absence of HSA (first value of cell)): 7.1 mM⁻¹ s⁻¹
r1 (20 MHz), presence of HSA ([4]; 20 MHz, presence of HSA (second value of cell)): 31.8 mM⁻¹ s⁻¹
r1 (60 MHz), absence of HSA ([4]; 60 MHz, absence of HSA (first value of cell)): 6.7 mM⁻¹ s⁻¹
r1 (60 MHz), presence of HSA ([4]; 60 MHz, presence of HSA (second value of cell)): 21.1 mM⁻¹ s⁻¹
% HSA binding (HSA): 90%
Compound: 2,2′,2″-(10-(3-(((1-Carboxy-2-(4-hydroxy-3,5-diiodophenyl)ethyl)-amino)-2-(2-(4-isobutylphenyl)propanamido)-3-oxopropyl)-1,4,7,10-tetraazacyclododecane-1,4,7-triyl)triacetic Acid [Gd (8)]

Compound: 2,2′-(4-(2-carboxy-2-((1-(4-isobutylphenyl)ethyl)amino)ethyl)-10-(phosphonomethyl)-1,4,7,10-tetraazacyclododecane-1,7-diyl)diacetic acid [Gd(4b)]
r1 (20 MHz, 37° C., mM^−1s^−1) [5]: 4 mM⁻¹ s⁻¹
r1 (60 MHz, 37° C., mM^−1s^−1) [5]: 3.8 mM⁻¹ s⁻¹

r1 (20 MHz, 37° C., mM^−1s^−1) [5]: 3.2 mM⁻¹ s⁻¹
r1 (60 MHz, 37° C., mM^−1s^−1) [5]: 3.0 mM⁻¹ s⁻¹
Compound: CC(C)Cc1ccc(C(C)C(=O)NCCNC(=O)C(N)CN2CCN(CC(=O)O)CCN(CP(=O)(O)O)CCN(CC(=O)O)CC2)cc1 (stereo not shown) [Gd(5b), 2, 2′-(4-(2-amino-3-((2-(2-(4-isobutylphenyl)propanamido)ethyl)amino)-3-oxopropyl)-10-(phosphonomethyl)-1,4,7,10-tetraazacyclododecane-1,7-diyl)diacetic acid]

Compound: 2,2′-(4-(2-carboxy-2-(2-(4-isobutylphenyl)propanamido)ethyl)-10-(phosphonomethyl)-1,4,7,10-tetraazacyclododecane-1,7-diyl)diacetic acid [Gd(5a)]
r1 (20 MHz, 37° C., mM^−1s^−1) [5]: 5.4 mM⁻¹ s⁻¹
r1 (60 MHz, 37° C., mM^−1s^−1) [5]: 4.1 mM⁻¹ s⁻¹
^310 TM (ns) [6]: 6.36 ± 0.09 ns
^310kex × 10^6 (s^−1) [6]: 158 ± 3 × 10^6 s^−1
ΔH^‡ [6]: 5.492 ± 0.421 kcal/mol

Kcomp [Gd(DTPA)(H2O)]^2- vs. L pH 4 [1]: 0.091^9
Kcomp, [Gd(DTPA)(H2O)]^2- vs. L pH 7.4 [1]: .001^9
Compound: CC1(N(CC(=O)O)CC(=O)O)CN(CC(=O)O)CCN(CC(=O)O)C1 [AAZTA]

relaxivity after disulfide bond reduction [3]: 11.5 mM⁻¹ s⁻¹
Compound: H2N—C(SH)PG-DOTAla(Gd)-G-DOTAla(Gd)-G-DOTAla(Gd)-GC(SH)CONH2 [Gd3C3-red]

r1 (20 MHz, 37° C., mM^−1s^−1) [5]: 6.4 mM⁻¹ s⁻¹
r1 (60 MHz, 37° C., mM^−1s^−1) [5]: 6.1 mM⁻¹ s⁻¹
ΔH^‡ [6]: 3.23 ± 0.268 kcal/mol
Compound: NC(CN1CCN(CC(=O)O)CCN(CP(=O)(O)O)CCN(CC(=O)O)CC1)C(=O)O (stereo not shown) [Gd(3), 2,2′-(4-(2-amino-2-carboxyethyl)-10-(phosphonomethyl)-1,4,7,10-tetra-azacyclododecane-1,7-diyl)diacetic acid]
^310 TM (ns) [6]: 8.1 ± 0.25 ns
^310kex × 10^6 (s^−1) [6]: 125 ± 4 × 10^6 s^−1
